Data on six molecules can be found in patent publication US8822533B1, “Methods and compositions for repelling and/or killing insects” (The United States of America, as represented by the …, priority 2011, dated 2014).

Data set [1] deals with Ae. aegypti + An. albimanus. Put plainly: Bite protection of FRACUs (Defender-M) treated with insecticides. As to conditions: FRACU (Defender-M) sleeve; allethrin 0.085, bioresmethrin 0.106, etofenprox 0.101, bifenthrin 0.101 mg/cm^2. Type of data set: in vivo. As for the experimental part: Biological Evaluation: Bite protection assays were conducted with laboratory-reared 7-12 day old mosquitoes or sand flies. The species used throughout these studies are Aedes aegypti (Orlando, 1952) and Phlebotomus papatasi sand flies (Jerusalem, 1983). Females were pre-selected using either a hand draw box or a mechanical aspirator.
An assay was conducted by wearing sewn sleeves made from clothing material. Treated specimens were assayed with untreated controls to correct for the bite resistance afforded by material construction and composition. The untreated control was tested at the beginning of the experiment, followed by successively higher candidate repellent concentrations on sleeves. Sleeves were sewn from a cut out single ply trapezoidal pattern (33.2 cm×21 cm×25.5 cm height) of material. Sleeves were normally with a candidate repellent at the EPA permethrin label rate of 0.52% weight on (+5% tolerance) or less (0.125 mg/cm^2 for the 50/50 Nylon/Cotton (NYCO) Army Combat Uniform and 0108 mg./cm2 for the 65% Rayon/25% Para-aramid/10% Nylon Fire-Resistant Army Combat Uniform). Permethrin was 35:65cis: trans, 95.85% technical material. Experimental repellents were received as neat samples with <5% impurities. The treatment occurred by dissolution of repellent in suitable quantity of acetone to saturate the clothing, but minimizing excess solution. Excess solution was quantified and this amount of excess was then used to calculate the estimated amount of repellent applied to the material.
Insects were maintained in colony at approximately 78° F. and 60-80% RH. The photoperiod was 12:12. The mosquito cages were approximately 60000 cm^3 and each contained 175 to 225 female mosquitoes. […] Cages for sand fly work were slightly smaller (15000 cm^3) and constructed of acrylic for filming purposes and with screens on the exterior edges to allow air flow through the system. About 20-40 sand flies were released in cages for each assay. Assays started when the sleeved arm was inserted through the sleeve into the cage. Normally the hand was protected by a glove, but there were situations (i.e. sand fly data presented here) when the ability of a repellent to protect the untreated hand was determined. The assay periods were 15 min for the mosquitoes and 25-30 minutes for sand flies. The insects were allowed to land, probe and possibly bloodfeed during this time. At the conclusion of the experiment, all insects were knocked down or aspirated and the percentage that bloodfed of the total female test population in the cage was recorded. The protect level was calculated by Abbott's formula as a percentage reduction in bites compared to the untreated fabric control sleeve.
We were able to examine several treatments on the FRACU fabric sleeves (Table 7). […]

In data set [2] the test system is bed bugs (Cimex lectularius). As to the kind of experiment: Bed bug mortality on treated filter paper. Type of data set: in vivo. The method, then:
Knockdown data and mortality for volatile pyrethroids against bed bugs (Cimex lectularius): Compounds were dissolved in acetone to yield concentrations of 100 μg/cm^2, 10 μg/cm^2, and 1 μg/cm^2 and 47 mm filter paper disks were treated. Acetone-treated filter paper was used as a negative control. Mixed stages (nymphs and adults) of a laboratory colony of the bed bug Cimex lectularius were placed on the treated filter paper in glass Petri dishes and mortality was recorded 24 h later, at which time bed bugs were removed to untreated surfaces. 24 h after this transfer another assessment of mortality was made to see if any dead or moribund bugs had recovered.

The subject of data set [3] is bed bugs (Cimex lectularius). As to the kind of experiment: Bed bug mortality on treated filter paper. In kind it is in vivo. As to conditions: 24 h.
Data set [4] deals with Ae. aegypti mosquitoes. As to the kind of experiment: Sleeve bite protection assay on treated uniform fabric, mosquitoes. Type of data set: in vivo, Aedes aegypti (Orlando, 1952). The method, then: (§1) Biological Evaluation: Bite protection assays were conducted with laboratory-reared 7-12 day old mosquitoes or sand flies. The species used throughout these studies are Aedes aegypti (Orlando, 1952) and Phlebotomus papatasi sand flies (Jerusalem, 1983). Females were pre-selected using either a hand draw box or a mechanical aspirator. An assay was conducted by wearing sewn sleeves made from clothing material. Treated specimens were assayed with untreated controls to correct for the bite resistance afforded by material construction and composition. The untreated control was tested at the beginning of the experiment, followed by successively higher candidate repellent concentrations on sleeves. Sleeves were sewn from a cut out single ply trapezoidal pattern (33.2 cm×21 cm×25.5 cm height) of material. […] Permethrin was 35:65cis: trans, 95.85% technical material. Experimental repellents were received as neat samples with <5% impurities. The treatment occurred by dissolution of repellent in suitable quantity of acetone to saturate the clothing, but minimizing excess solution. Excess solution was quantified and this amount of excess was then used to calculate the estimated amount of repellent applied to the material. […] The photoperiod was 12:12. The mosquito cages were approximately 60000 cm^3 and each contained 175 to 225 female mosquitoes. […] Cages for sand fly work were slightly smaller (15000 cm^3) and constructed of acrylic for filming purposes and with screens on the exterior edges to allow air flow through the system. About 20-40 sand flies were released in cages for each assay. Assays started when the sleeved arm was inserted through the sleeve into the cage. Normally the hand was protected by a glove, but there were situations (i.e. sand fly data presented here) when the ability of a repellent to protect the untreated hand was determined. The assay periods were 15 min for the mosquitoes and 25-30 minutes for sand flies. The insects were allowed to land, probe and possibly bloodfeed during this time. At the conclusion of the experiment, all insects were knocked down or aspirated and the percentage that bloodfed of the total female test population in the cage was recorded. The protect level was calculated by Abbott's formula as a percentage reduction in bites compared to the untreated fabric control sleeve. Specific conditions for bioassays are noted with corresponding data contained in the Tables.

Data set [5] concerns Mosquitoes, either Aedes aegypti (Liverpool) or Anopheles stephensi Liston. Put plainly: K&D module in vitro bioassay: biting protection, knockdown and mortality. Type of data set: in vivo. As for the experimental part: In vitro bioassays were conducted as described by Klun et. al. (Klun, J. A., et al., J. Med. Entomol., 40: 293-299 (2005)). Each test replicate consisted of 3 treatments: a control (EtOH); a standard (Deet, 4.54 nmol/μl); and an experimental compound (pyrethroid analogs, 4.54 nmol/ul). The 3 treatments were randomly assigned to consecutive cells in 2, 6-cell reservoirs connected in series to a single water-bath pump; thus, 4 replicates could be tested/run. Tests were performed in an Air Science USA hood, with an air movement velocity of approx. 110-120 ft./min., temperature of 25-27° C., and RH of 15-25%. A 6-celled reservoir was connected to and heated by a constant-temperature (38° C.) water circulator (Lauda E100, Wobser GMGH and Co., Konigshofell, Germany).
Prior to each test, the upper surface of each reservoir was coated with a thin layer of high-vacuum silicone grease (Dow Corning Corp., Midland, Mich.), and the cells then filled (approx. 6 ml. capacity) or topped-off with either: (1) expired human red blood cells suspended in citrate-phosphate-dextrose-adenine (CPDA) solution, not more than 1 month past expiration date, and to which 110 mg ATP/35 ml. blood-CPDA had been added on the day of testing; or (2) CPDA+ATP×^−3, usually made up or diluted to 10^−3 ATP on the day of testing. The filled cells were then covered with an Edicol collagen membrane (Devro, Sandy Run, S.C.) strip, and then with a just-treated (110 μl of 4.54 nmol/μl treatment or control solution) organdy cloth (G Street Fabrics, Rockville, Md.) strip. Mosquitoes used in tests were either Aedes aegypti_(Liverpool) or Anopheles stephensi_Liston. K&D modules containing 5 adult females/cell were placed over a Teflon separator atop each reservoir; the sliding floors opened allowing access to the treated organdy cloth and membrane-covered cell; and the number of mosquitoes biting (proboscis inserted through the cloth) and/or observed to be engorged within each cell at the end of a 3-5 min. exposure period was recorded. Mosquitoes were used only once in a test, and then frozen and discarded.
Only tests in which 3 or more females fed in the control cell were analyzed, as lower feeding rates are indicative of substandard feeding readiness of that group of mosquitoes.
[…] Data were collected to record knockdown in 6 minutes, one hour and 24 hours post exposure.

Data set [6] deals with Phlebotomus papatasi sand flies. As to the kind of experiment: Sleeve bite protection assay on treated uniform fabric, sand flies. In kind it is in vivo, Phlebotomus papatasi (Jerusalem, 1983). As to conditions: FRACU, permethrin sleeve 0.134 mg/cm^2 + treated strip, hand ungloved; strip TL-I-73 0.167, transfluthrin 0.161 mg/cm2. The method, then:
as §1

Setting [7] is: ACU sleeve, No Glove on hand, permethrin 0.118, transfluthrin 0.108 mg/cm^2.
Setting [8] is: ACU sleeve, stored one year then tested, concentrations as E1.
Setting [9] is: FRACU sleeve, concentrations as E9.
Where [10] appears, read: FRACU, untreated sleeve + treated strip, Ultrathon (34.34% DEET) on hand, TL-I-73 0.163, transfluthrin 0.158 mg/cm^2.
Where [11] appears, read: FRACU, untreated sleeve + treated strip, hand gloved, TL-I-73 0.163, transfluthrin 0.158 mg/cm^2.

With `Cc1c(COC(=O)[C@@H]2[C@H](/C=C(\Cl)C(F)(F)F)C2(C)C)cccc1-c1ccccc1` (racemic) [Bifenthrin], in data set [1], the “Bite Protection (% ± SE) (Ae. aegypti + An. albimanus)” value came to 91.5 ± 1.1%.
Still for that read-out and setting: as for `C=CCC1=C(C)C(OC(=O)C2C(C=C(C)C)C2(C)C)CC1=O` (stereo not drawn) [Allethrin], the figure is 98.7 ± 0.8%; as for `CC(C)=C[C@@H]1[C@@H](C(=O)OCc2coc(Cc3ccccc3)c2)C1(C)C` [Bioresmethrin], 98.1 ± 0.8%.
The same measure, in the same setting: as for `CCOc1ccc(C(C)(C)COCc2cccc(Oc3ccccc3)c2)cc1` [Etofenprox], the figure is 94.9 ± 0.6%.
In data set [2] (Cimex lectularius, 24 h), `Cc1c(Cl)c(Cl)c(COC(=O)[C@@H]2[C@@H](C=C(Cl)Cl)C2(C)C)c(Cl)c1Cl` [TL-I-111] registered a mortality at 1 µg/cm2 of 0%, a mortality at 10 µg/cm2 of 100% and a mortality at 100 µg/cm2 of 100%. Also, in data set [3], the mortality at 5 µg/cm2 came out at 100%.
Regarding `CC1(C)[C@H](C=C(Cl)Cl)[C@H]1C(=O)OCc1c(F)c(F)cc(F)c1F` [Transfluthrin, transfluthrin], the “Blood-fed #” value in data set [4] (ACU (50/50 NYCO) sleeve, glove on hand, 15 min, permethrin 0.118, transfluthrin 0.108, TL-I-107 0.107, TL-I-141 0.109, TL-I-105 0.107, TL-I-73 0.102 mg/cm^2) was 0 #; in data set [4] (setting [7]) it was 4 #; in data set [4] (ACU sleeve, treated specimens stored in refrigerator for one year then tested, concentrations as E1) it was 0 #; in data set [4] (FRACU (65% Rayon, 10% Nylon, 25% Para-aramid) sleeve, permethrin 0.071, combination permethrin 0.031 + transfluthrin 0.038, transfluthrin 0.052 mg/cm^2), 0 #; in data set [4] (FRACU, untreated sleeve + treated strip (20.5 cm × 2.6 cm) at wrist, hand gloved, TL-I-73 0.163, transfluthrin 0.158 mg/cm^2) it was 11 #; in data set [4] (FRACU, untreated sleeve + treated strip, Ultrathon 12 hr repellent (34.34% DEET) on hand, TL-I-73 0.163, transfluthrin 0.158 mg/cm^2), 6 #. The “Bite Protection (%)” value stood at 100% in data set [4] (ACU (50/50 NYCO) sleeve, glove on hand, Abbott's formula vs untreated sleeve, concentrations as E1); 100% in data set [4] (setting [8]); 100.0% in data set [4] (setting [9]); 100% in data set [4] (FRACU sleeve, concentrations as E9, listed as transfluthrin); 100% in data set [4] (FRACU, permethrin sleeve 0.134 mg/cm^2 + treated strip, hand gloved, strip TL-I-73 0.167, transfluthrin 0.161 mg/cm^2); 89.2% in data set [4] (setting [10]). For the same molecule, the entries for the “Bite Protection (%)” value in data set [4] (setting [11]) and in data set [6] were 93.3% and “significant protection from sand fly bites to the unprotected hand”, respectively. Also, the “Fed (%)” value amounted to 0.0% in data set [4] (ACU (50/50 NYCO) sleeve, glove on hand, concentrations as E1); 2.1% in data set [4] (setting [7]); 0.0% in data set [4] (setting [8]); 0.0% in data set [4] (setting [9]); 2.9% in data set [4] (setting [10]); 5.5% in data set [4] (setting [11]). In addition, the “protecting non-repellent treated surfaces of skin (i.e. the hand)” value in data set [4] (ACU sleeve, glove removed from hand, compared with permethrin) is reported as “superior to permethrin”. In data set [4] (Defender-M FRACU sleeve at 0.52 mg/cm2), this molecule returned a bite protection of 100%. For the same molecule, the “Knockdown 6 min (%)” value in data set [5] (2.5 nM\cm^2, K&D module) stood at 100%; in data set [5] (25 nM\cm^2, K&D module), 100%. For the same molecule, the “Knockdown 24 hours (%)” value amounted to 100% in data set [5] (2.5 nM\cm^2, K&D module) and 100% in data set [5] (25 nM\cm^2, K&D module). For the same molecule, the “Not feeding 3 minutes (%)” value in data set [5] (2.5 nM\cm^2, K&D module) is reported as 100%; in data set [5] (25 nM\cm^2, K&D module), 100%. The “Knockdown 1 hour (%)” value in data set [5] (2.5 nmol/cm^2, K&D module) worked out at 100%; in data set [5] (25 nmol/cm^2, K&D module) it was 100%. This molecule showed a mortality at 0.0025 µM in data set [5] (Aedes aegypti, 24 h) of 100%. The molecule also had a mortality at 0.025 µM in data set [5] (Aedes aegypti, 48 h) of 100%. Besides, the “mortality (in words)” value in data set [2] (at either 100 μg/cm^2 or 10 μg/cm^2) is listed as “no mortality or mortality less than 100%”. For the same molecule, the “mortality (value in parentheses)” value in data set [2] (concentration not clearly stated for this group) was found to be 20%.

For orientation: mortality means the percentage killed. Low readings indicate more survivors, high ones fewer survivors.
